From PubChem BioAssay (NCI)
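Assay format: 96-well plates, 48-hour exposure. Abbreviation: GI50, concentration required for 50% inhibition of growth. TGI marks complete inhibition of growth.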

Legend:
Assay in all cases: inhibition of tumour cell growth, NCI panel, 48 h
SK-OV-3 ovarian = tested on: SK-OV-3 ovarian
SF-268 CNS = tested on: SF-268 CNS
EKVX NSCLC = tested on: EKVX NSCLC
SF-295 CNS = tested on: SF-295 CNS
A549 NSCLC = tested on: A549 NSCLC
HOP-92 NSCLC = tested on: HOP-92 NSCLC
SK-MEL-28 melanoma = tested on: SK-MEL-28 melanoma
MCF7 breast = tested on: MCF7 breast
MDA-MB-231 breast = tested on: MDA-MB-231 breast
HS 578T breast = tested on: HS 578T breast

In the case of `COc1ccc(-c2cc(C(=O)Nc3cccc(C(F)(F)F)c3)[nH]c(=S)n2)cc1`, the TGI (SK-OV-3 ovarian) is reported as > 100 µM, the TGI (SF-268 CNS) is reported as > 100 µM and the TGI (EKVX NSCLC) is reported as > 100 µM. The TGI (SF-295 CNS) was > 100 µM, the TGI (A549 NSCLC) was > 100 µM and the TGI (HOP-92 NSCLC) was > 100 µM. The TGI (SK-MEL-28 melanoma) was > 100 µM.
Compound `CC(C)(C)c1nc2c(o1)C(=Nc1ccccc1)c1ccccc1C2=O` has a TGI (SK-OV-3 ovarian) of 63.4 µM, a TGI (SF-268 CNS) of 21 µM and a TGI (EKVX NSCLC) of 41 µM. For the same compound, the TGI (SF-295 CNS) was 10.2 µM, the TGI (A549 NSCLC) was 23.5 µM and the TGI (HOP-92 NSCLC) was 23.8 µM. The TGI (SK-MEL-28 melanoma) was 10.8 µM.
`COCCNCC(O)Cn1c2ccc(Cl)cc2c2cc(Cl)ccc21` (stereo not given) was tested, and the GI50 (SK-OV-3 ovarian) was 2.46 µM, the TGI (SK-OV-3 ovarian) was 5.93 µM and the GI50 (SF-268 CNS) was 1.79 µM. For the same compound, the TGI (SF-268 CNS) was 3.48 µM, the GI50 (SF-295 CNS) was 1.93 µM and the TGI (SF-295 CNS) was 4.28 µM. It also gave a GI50 (MCF7 breast) of 1.81 µM, a TGI (MCF7 breast) of 3.49 µM and a GI50 (A549 NSCLC) of 1.79 µM. For the same compound, the TGI (A549 NSCLC) was 3.74 µM, the GI50 (MDA-MB-231 breast) was 1.67 µM and the TGI (MDA-MB-231 breast) was 3.4 µM. For the same compound, the GI50 (HOP-92 NSCLC) was 1.57 µM, the TGI (HOP-92 NSCLC) was 5.17 µM and the GI50 (SK-MEL-28 melanoma) was 1.73 µM. It also gave a TGI (SK-MEL-28 melanoma) of 3.25 µM, a GI50 (HS 578T breast) of 1.99 µM and a TGI (HS 578T breast) of 5.51 µM.
`O=[N+]([O-])c1ccccc1S(=O)c1ccccc1` (stereo not given) was tested, and the TGI (SK-OV-3 ovarian) was > 100 µM, the TGI (SF-268 CNS) was > 100 µM and the TGI (SF-295 CNS) was > 100 µM. For the same compound, the TGI (A549 NSCLC) was > 100 µM, the TGI (HOP-92 NSCLC) was > 100 µM and the TGI (SK-MEL-28 melanoma) was > 100 µM.
`CCOC(C)OCC#CCCBr` (stereo not given) was tested, and the TGI (SK-OV-3 ovarian) was > 100 µM, the TGI (SF-268 CNS) was > 100 µM and the TGI (EKVX NSCLC) was > 100 µM. For the same compound, the TGI (SF-295 CNS) was > 100 µM and the TGI (A549 NSCLC) was > 100 µM.
Work on `COc1cc(-c2c3c(cn2S(=O)(=O)c2ccccc2)-c2nc(N)sc2CC3)cc(OC)c1OC` yielded a GI50 (SK-OV-3 ovarian) of 1.17 µM, a TGI (SK-OV-3 ovarian) of 9.77 µM and a GI50 (SF-268 CNS) of 4.46 µM. The TGI (SF-268 CNS) was > 100 µM, the GI50 (SF-295 CNS) was 0.372 µM and the TGI (SF-295 CNS) was 3.52 µM. It also gave a GI50 (MCF7 breast) of 0.381 µM, a TGI (MCF7 breast) of 21.4 µM and a GI50 (A549 NSCLC) of 0.58 µM. The TGI (A549 NSCLC) was 17.1 µM, the GI50 (MDA-MB-231 breast) was 1.1 µM and the TGI (MDA-MB-231 breast) was 79.1 µM. The GI50 (HOP-92 NSCLC) was 0.407 µM, the TGI (HOP-92 NSCLC) was 8.34 µM and the GI50 (SK-MEL-28 melanoma) was 1.12 µM. For the same compound, the TGI (SK-MEL-28 melanoma) was 29.8 µM.
For `[Cu+2].[Cu+2].[O-]c1ccccc1C=Nc1ccccc1[O-].[O-]c1ccccc1C=Nc1ccccc1[O-]`, the GI50 (SK-OV-3 ovarian) was 25.5 µM, the TGI (SK-OV-3 ovarian) was 40.4 µM and the GI50 (SF-268 CNS) was 11.8 µM. It also gave a TGI (SF-268 CNS) of 24.2 µM, a GI50 (EKVX NSCLC) of 11.8 µM and a TGI (EKVX NSCLC) of 25.9 µM. For the same compound, the GI50 (SF-295 CNS) was 8.01 µM, the TGI (SF-295 CNS) was 27.6 µM and the GI50 (A549 NSCLC) was 7.56 µM. The TGI (A549 NSCLC) was 27.8 µM, the GI50 (SK-MEL-28 melanoma) was 13.3 µM and the TGI (SK-MEL-28 melanoma) was 26 µM.
In the case of `O=C(Cc1ccccc1)Oc1ccc2c(-c3ccccc3)c(C(=O)Nc3ccc(Cl)cc3)c(=O)oc2c1`, the TGI (SK-OV-3 ovarian) is reported as > 100 µM, the TGI (SF-268 CNS) is reported as > 100 µM and the TGI (EKVX NSCLC) is reported as > 100 µM. The TGI (SF-295 CNS) was > 100 µM, the TGI (A549 NSCLC) was > 100 µM and the TGI (HOP-92 NSCLC) was > 100 µM. The TGI (SK-MEL-28 melanoma) was > 100 µM.
For `COc1cc2c(cc1OC)C1c3ccccc3C(C#N)(C2)N(C(=O)c2ccccc2)C1O` (stereo not given), the TGI (SK-OV-3 ovarian) was > 100 µM, the TGI (SF-268 CNS) was > 100 µM and the TGI (EKVX NSCLC) was > 100 µM. For the same compound, the TGI (SF-295 CNS) was > 100 µM, the TGI (HOP-92 NSCLC) was > 100 µM and the TGI (SK-MEL-28 melanoma) was > 100 µM.
`CN(C)CCC1(C2=CCCC2)CC/C(=C\c2ccc3c(c2)OCO3)C1=O` (stereo not given) showed a TGI (SF-268 CNS) of 28.1 µM, a TGI (EKVX NSCLC) of 29.3 µM and a TGI (SF-295 CNS) of 29.5 µM. For the same compound, the TGI (A549 NSCLC) was 31.8 µM, the TGI (HOP-92 NSCLC) was 24.4 µM and the TGI (SK-MEL-28 melanoma) was 27.4 µM.
`COc1nc(OC)c2c(=O)oc(-c3ccccc3)cc2n1` was tested, and the TGI (SK-OV-3 ovarian) was > 100 µM, the TGI (SF-268 CNS) was > 100 µM and the TGI (EKVX NSCLC) was > 100 µM. The TGI (SF-295 CNS) was > 100 µM, the TGI (A549 NSCLC) was > 100 µM and the TGI (HOP-92 NSCLC) was > 100 µM. For the same compound, the TGI (SK-MEL-28 melanoma) was > 100 µM.
For `CCCCOC1CC2(c3ccc(OC)cc3)C(=O)c3ccccc3N2O1` (stereo not given), the TGI (SK-OV-3 ovarian) was > 100 µM, the TGI (SF-268 CNS) was > 100 µM and the TGI (EKVX NSCLC) was > 100 µM. The TGI (SF-295 CNS) was > 100 µM and the TGI (A549 NSCLC) was > 100 µM.
For `CC(NC(=O)c1ccccc1)C(=O)N(Cc1ccccc1)Cc1ccccc1` (stereo not given), the TGI (SK-OV-3 ovarian) was > 100 µM, the TGI (SF-268 CNS) was > 100 µM and the TGI (SF-295 CNS) was 75 µM. For the same compound, the TGI (A549 NSCLC) was > 100 µM, the TGI (HOP-92 NSCLC) was 68.7 µM and the TGI (SK-MEL-28 melanoma) was 97.6 µM.
For `O=C1CCC2(c3ccc(F)cc3)Nc3ccccc3N12` (stereo not given), the TGI (SK-OV-3 ovarian) was > 100 µM, the TGI (SF-268 CNS) was > 100 µM and the TGI (EKVX NSCLC) was > 100 µM. The TGI (SF-295 CNS) was > 100 µM, the TGI (A549 NSCLC) was > 100 µM and the TGI (HOP-92 NSCLC) was > 100 µM. For the same compound, the TGI (SK-MEL-28 melanoma) was > 100 µM.
In the case of `COC(=O)c1cnc2nc(N3CCOCC3)[nH]n2c1=O`, the TGI (SK-OV-3 ovarian) is reported as > 100 µM, the TGI (SF-268 CNS) is reported as > 100 µM and the TGI (EKVX NSCLC) is reported as > 100 µM. The TGI (SF-295 CNS) was > 100 µM, the TGI (A549 NSCLC) was > 100 µM and the TGI (HOP-92 NSCLC) was > 100 µM. The TGI (SK-MEL-28 melanoma) was > 100 µM.
With `COc1ccc(/C=C2/CN(C(=O)c3ccccc3F)C/C(=C\c3ccc(OC)cc3)C2=O)cc1` the GI50 (SK-OV-3 ovarian) was 4.58 µM, the TGI (SK-OV-3 ovarian) was 18.3 µM and the GI50 (SF-268 CNS) was 4.28 µM. It also gave a TGI (SF-268 CNS) of 18.9 µM, a GI50 (MCF7 breast) of 0.543 µM and a TGI (MCF7 breast) of 3.56 µM. For the same compound, the GI50 (A549 NSCLC) was 4.83 µM, the TGI (A549 NSCLC) was 34.3 µM and the GI50 (MDA-MB-231 breast) was 2.88 µM. It also gave a TGI (MDA-MB-231 breast) of 9.04 µM, a GI50 (HOP-92 NSCLC) of 10.3 µM and a TGI (HOP-92 NSCLC) of 39.6 µM. For the same compound, the GI50 (SK-MEL-28 melanoma) was 2.72 µM, the TGI (SK-MEL-28 melanoma) was 7.93 µM and the GI50 (HS 578T breast) was 2.54 µM. For the same compound, the TGI (HS 578T breast) was 8.31 µM.
For `COc1cc(OC)cc(N2CCC(c3c(N)nc(N)nc3Cl)CC2)c1`, the TGI (SK-OV-3 ovarian) was > 100 µM, the TGI (SF-268 CNS) was > 100 µM and the TGI (EKVX NSCLC) was > 100 µM. For the same compound, the TGI (SF-295 CNS) was > 100 µM, the TGI (A549 NSCLC) was > 100 µM and the TGI (HOP-92 NSCLC) was > 100 µM. For the same compound, the TGI (SK-MEL-28 melanoma) was > 100 µM.
